target: human GluN1/GluN2B NMDA receptors (Homo sapiens, UniProt Q05586+Q13224); test: Cell-based calcium flux (FLIPR) assay on cloned human NR1/NR2B ion channels expressed in mammalian cells; conditions: standard assay; human GluN1/GluN2B, calcium flux (FLIPR), glutamate ~EC80
How it was run: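 Calcium influx followed by FLIPR fluorescence after 5 min compound exposure and a further 5 min co-agonist challenge: 10 μM glycine with glutamate at ~EC80 (standard) or EC40 (HTS).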

human GluN1/GluN2B NMDA receptors, sequence (Q13224 27-1484, other chains not shown): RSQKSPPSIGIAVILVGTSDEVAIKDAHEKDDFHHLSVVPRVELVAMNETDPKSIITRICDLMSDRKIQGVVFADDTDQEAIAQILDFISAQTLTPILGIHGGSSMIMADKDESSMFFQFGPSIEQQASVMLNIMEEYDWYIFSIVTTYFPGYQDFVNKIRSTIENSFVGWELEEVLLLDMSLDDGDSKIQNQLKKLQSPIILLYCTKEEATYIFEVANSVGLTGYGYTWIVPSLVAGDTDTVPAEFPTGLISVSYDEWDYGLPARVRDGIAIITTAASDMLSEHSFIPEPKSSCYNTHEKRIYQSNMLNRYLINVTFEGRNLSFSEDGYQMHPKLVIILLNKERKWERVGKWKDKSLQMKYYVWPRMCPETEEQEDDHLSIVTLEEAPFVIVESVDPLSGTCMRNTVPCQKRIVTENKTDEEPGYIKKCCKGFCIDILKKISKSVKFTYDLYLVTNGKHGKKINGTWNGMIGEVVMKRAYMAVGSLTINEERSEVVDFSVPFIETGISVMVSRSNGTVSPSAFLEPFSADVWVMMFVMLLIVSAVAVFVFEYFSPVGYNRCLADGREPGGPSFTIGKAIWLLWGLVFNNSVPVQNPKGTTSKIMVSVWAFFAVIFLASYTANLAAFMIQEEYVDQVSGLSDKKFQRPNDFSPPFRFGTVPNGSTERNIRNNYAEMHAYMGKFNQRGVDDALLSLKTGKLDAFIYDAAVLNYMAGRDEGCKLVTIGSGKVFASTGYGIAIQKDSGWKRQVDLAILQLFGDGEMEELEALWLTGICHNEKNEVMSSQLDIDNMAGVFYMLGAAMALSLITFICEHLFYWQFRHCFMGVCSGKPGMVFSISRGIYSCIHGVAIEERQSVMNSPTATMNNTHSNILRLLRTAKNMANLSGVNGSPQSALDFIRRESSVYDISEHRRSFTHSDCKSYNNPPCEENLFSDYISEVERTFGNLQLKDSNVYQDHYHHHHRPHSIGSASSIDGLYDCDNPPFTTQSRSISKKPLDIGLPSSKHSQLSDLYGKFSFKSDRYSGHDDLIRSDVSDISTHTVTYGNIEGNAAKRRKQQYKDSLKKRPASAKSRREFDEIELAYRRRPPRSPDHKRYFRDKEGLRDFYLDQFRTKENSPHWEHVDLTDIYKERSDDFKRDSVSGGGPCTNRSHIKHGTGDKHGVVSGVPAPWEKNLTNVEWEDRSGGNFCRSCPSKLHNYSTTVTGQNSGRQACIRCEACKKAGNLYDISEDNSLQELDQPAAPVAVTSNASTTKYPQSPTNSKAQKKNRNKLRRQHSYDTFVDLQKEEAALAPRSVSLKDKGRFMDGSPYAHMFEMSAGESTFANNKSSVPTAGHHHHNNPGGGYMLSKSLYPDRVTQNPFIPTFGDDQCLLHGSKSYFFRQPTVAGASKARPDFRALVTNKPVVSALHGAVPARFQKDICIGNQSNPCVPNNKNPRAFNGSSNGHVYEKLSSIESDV

| SMILES | IC50 [µM] |
| --- | --- |
| CNc1nc(OCc2cn(-c3cccc(C(C)(F)F)c3)nn2)ncc1F [Example 315, 2-[[1-[3-(1,1-Difluoroethyl)phenyl]triazol-4-yl]methoxy]-5-fluoro-N-methyl-pyrimidin-4-amine] | 0.158 |
| CC(F)(F)c1cccc(-n2cc(COc3nccc(N)n3)nn2)c1 [Example 316, 2-[[1-[3-(1,1-Difluoroethyl)phenyl]triazol-4-yl]methoxy]pyrimidin-4-amine] | 0.183 |
| CNc1ccnc(OCc2cn(-c3cccc(C(C)(F)F)c3)nn2)n1 [Example 317, 2-[[1-[3-(1,1-Difluoroethyl)phenyl]triazol-4-yl]methoxy]-N-methyl-pyrimidin-4-amine] | 0.026 |
| CN(C)c1ccnc(OCc2cn(-c3cccc(C(C)(F)F)c3)nn2)n1 [Example 318, 2-[[1-[3-(1,1-Difluoroethyl)phenyl]triazol-4-yl]methoxy]-N,N-dimethyl-pyrimidin-4-amine] | 0.026 |
| CC(F)(F)c1cccc(-n2cc(COc3ncc(C4CC4)cn3)nn2)c1 [Example 319, 5-Cyclopropyl-2-[[1-[3-(1,1-difluoroethyl)phenyl]triazol-4-yl]methoxy]pyrimidine] | 0.015 |
| CC(F)(F)c1cccc(-n2cc(COc3ncc(N4CCC4)cn3)nn2)c1 [Example 320, 5-(Azetidin-1-yl)-2-[[1-[3-(1,1-difluoroethyl)phenyl]triazol-4-yl]methoxy]pyrimidine] | 0.061 |
| CC(F)(F)c1cccc(-n2cc(COc3ncc(N4CC(F)C4)cn3)nn2)c1 [Example 321, 2-[[1-[3-(1,1-Difluoroethyl)phenyl]triazol-4-yl]methoxy]-5-(3-fluoroazetidin-1-yl)pyrimidine] | 0.104 |
| CC(F)(F)c1cccc(-n2cc(COc3nccc(N4CCCC4)n3)nn2)c1 [Example 322, 2-[[1-[3-(1,1-Difluoroethyl)phenyl]triazol-4-yl]methoxy]-4-pyrrolidin-1-yl-pyrimidine] | 0.011 |
| FC(F)Oc1cccc(-n2cc(COc3ncccn3)nn2)c1 [Example 323, 2-[[1-[3-(Difluoromethoxy)phenyl]triazol-4-yl]methoxy]pyrimidine] | 0.788 |
| Fc1cnc(OCc2cn(-c3cccc(OC(F)F)c3)nn2)nc1 [Example 324, 2-[[1-[3-(Difluoromethoxy)phenyl]triazol-4-yl]methoxy]-5-fluoro-pyrimidine] | 0.494 |
| COc1cnc(OCc2cn(-c3cccc(OC(F)F)c3)nn2)nc1 [Example 325, 2-[[1-[3-(Difluoromethoxy)phenyl]triazol-4-yl]methoxy]-5-methoxy-pyrimidine] | 0.027 |
| FC(F)Oc1cccc(-n2cc(COc3ncc(Cl)cn3)nn2)c1 [Example 326, 5-Chloro-2-[[1-[3-(difluoromethoxy)phenyl]triazol-4-yl]methoxy]pyrimidine] | 0.069 |
| Cc1cnc(OCc2cn(-c3cccc(OC(F)F)c3)nn2)nc1 [Example 327, 2-[[1-[3-(Difluoromethoxy)phenyl]triazol-4-yl]methoxy]-5-methyl-pyrimidine] | 0.015 |
| CCc1cnc(OCc2cn(-c3cccc(OC(F)F)c3)nn2)nc1 [Example 328, 2-[[1-[3-(Difluoromethoxy)phenyl]triazol-4-yl]methoxy]-5-ethyl-pyrimidine] | 0.029 |
| FC(F)Oc1ccc(-n2cc(COc3ncccn3)nn2)cc1 [Example 329, 2-[[1-[4-(Difluoromethoxy)phenyl]triazol-4-yl]methoxy]pyrimidine] | 0.854 |
| Fc1cnc(OCc2cn(-c3ccc(OC(F)F)cc3)nn2)nc1 [Example 330, 2-[[1-[4-(Difluoromethoxy)phenyl]triazol-4-yl]methoxy]-5-fluoro-pyrimidine] | 0.752 |
| COc1cnc(OCc2cn(-c3ccc(OC(F)F)cc3)nn2)nc1 [Example 331, 2-[[1-[4-(Difluoromethoxy)phenyl]triazol-4-yl]methoxy]-5-methoxy-pyrimidine] | 0.098 |
| FC(F)Oc1ccc(-n2cc(COc3ncc(Cl)cn3)nn2)cc1 [Example 332, 5-Chloro-2-[[1-[4-(difluoromethoxy)phenyl]triazol-4-yl]methoxy]pyrimidine] | 0.2 |
| Cc1cnc(OCc2cn(-c3ccc(OC(F)F)cc3)nn2)nc1 [Example 333, 2-[[1-[4-(Difluoromethoxy)phenyl]triazol-4-yl]methoxy]-5-methyl-pyrimidine] | 0.087 |
| CCc1cnc(OCc2cn(-c3ccc(OC(F)F)cc3)nn2)nc1 [Example 334, 2-[[1-[4-(Difluoromethoxy)phenyl]triazol-4-yl]methoxy]-5-ethyl-pyrimidine] | 0.051 |
| FC(F)(F)Oc1ccc(-n2cc(COc3ncccn3)nn2)cc1 [Example 335, 2-[[1-[4-(Trifluoromethoxy)phenyl]triazol-4-yl]methoxy]pyrimidine] | 3.12 |
| COc1cnc(OCc2cn(-c3ccc(OC(F)(F)F)cc3)nn2)nc1 [Example 337, 5-Methoxy-2-[[1-[4-(trifluoromethoxy)phenyl]triazol-4-yl]methoxy]pyrimidine] | > 10 |

| SMILES | IC50 [µM] |
| --- | --- |
| FC(F)(F)Oc1ccc(-n2cc(COc3ncc(Cl)cn3)nn2)cc1 [Example 338, 5-Chloro-2-[[1-[4-(trifluoromethoxy)phenyl]triazol-4-yl]methoxy]pyrimidine] | 9.05 |
| Cc1cnc(OCc2cn(-c3ccc(OC(F)(F)F)cc3)nn2)nc1 [Example 339, 5-Methyl-2-[[1-[4-(trifluoromethoxy)phenyl]triazol-4-yl]methoxy]pyrimidine] | 1.13 |
| CCc1cnc(OCc2cn(-c3ccc(OC(F)(F)F)cc3)nn2)nc1 [Example 340, 5-Ethyl-2-[[1-[4-(trifluoromethoxy)phenyl]triazol-4-yl]methoxy]pyrimidine] | 0.794 |
| FC(F)(F)Oc1cccc(-n2cc(COc3ncccn3)nn2)c1 [Example 341, 2-[[1-[3-(Trifluoromethoxy)phenyl]triazol-4-yl]methoxy]pyrimidine] | 0.538 |
| Cc1cnc(OCc2cn(-c3cccc(OC(F)(F)F)c3)nn2)nc1 [Example 342, 5-Methyl-2-[[1-[3-(trifluoromethoxy)phenyl]triazol-4-yl]methoxy]pyrimidine] | 0.017 |
| Cc1cnc(OCc2cn(-c3cccc(OC(F)(F)F)c3)nn2)nc1N [Example 343, 5-Methyl-2-[[1-[3-(trifluoromethoxy)phenyl]triazol-4-yl]methoxy]pyrimidin-4-amine] | 0.04 |
| CC(=O)c1cnc(OCc2cn(-c3cccc(OC(F)(F)F)c3)nn2)nc1 [Example 344, 1-[2-[[1-[3-(Trifluoromethoxy)phenyl]triazol-4-yl]methoxy]pyrimidin-5-yl]ethanone] | 0.062 |
| CC(C)(O)c1cnc(OCc2cn(-c3cccc(OC(F)(F)F)c3)nn2)nc1 [Example 345, 2-[2-[[1-[3-(Trifluoromethoxy)phenyl]triazol-4-yl]methoxy]pyrimidin-5-yl]propan-2-ol] | 0.284 |
| COCc1ccnc(OCc2cn(-c3cccc(OC(F)(F)F)c3)nn2)n1 [Example 346, 4-(Methoxymethyl)-2-[[1-[3-(trifluoromethoxy)phenyl]triazol-4-yl]methoxy]pyrimidine] | 0.202 |
| Cc1ccnc(OCc2cn(-c3cccc(OC(F)(F)F)c3)nn2)n1 [Example 347, 4-Methyl-2-[[1-[3-(trifluoromethoxy)phenyl]triazol-4-yl]methoxy]pyrimidine] | 0.137 |
| Fc1cnc(OCc2cn(-c3cccc(OC(F)(F)F)c3)nn2)nc1 [Example 348, 5-Fluoro-2-[[1-[3-(trifluoromethoxy)phenyl]triazol-4-yl]methoxy]pyrimidine] | 0.447 |
| COc1cnc(OCc2cn(-c3cccc(OC(F)(F)F)c3)nn2)nc1 [Example 349, 5-Methoxy-2-[[1-[3-(trifluoromethoxy)phenyl]triazol-4-yl]methoxy]pyrimidine] | 0.013 |
| FC(F)(F)Oc1cccc(-n2cc(COc3ncc(Cl)cn3)nn2)c1 [Example 350, 5-Chloro-2-[[1-[3-(trifluoromethoxy)phenyl]triazol-4-yl]methoxy]pyrimidine] | 0.05 |
| CCc1cnc(OCc2cn(-c3cccc(OC(F)(F)F)c3)nn2)nc1 [Example 351, 5-Ethyl-2-[[1-[3-(trifluoromethoxy)phenyl]triazol-4-yl]methoxy]pyrimidine] | 0.015 |
| CNc1ccnc(OCc2cn(-c3cccc(OC(F)(F)F)c3)nn2)n1 [Example 352, N-Methyl-2-[[1-[3-(trifluoromethoxy)phenyl]triazol-4-yl]methoxy]pyrimidin-4-amine] | 0.068 |
| Nc1ccnc(OCc2cn(-c3cccc(OC(F)(F)F)c3)nn2)n1 [Example 353, 2-[[1-[3-(Trifluoromethoxy)phenyl]triazol-4-yl]methoxy]pyrimidin-4-amine] | 0.525 |
| Cc1cnc(OCc2cn(-c3ccc4c(c3)OC(F)(F)O4)nn2)nc1 [Example 354, 2-[[1-(2,2-Difluoro-1,3-benzodioxol-5-yl)triazol-4-yl]methoxy]-5-methyl-pyrimidine] | 0.073 |
| FC1(F)Oc2ccc(-n3cc(COc4ncccn4)nn3)cc2O1 [Example 355, 2-[[1-(2,2-Difluoro-1,3-benzodioxol-5-yl)triazol-4-yl]methoxy]pyrimidine] | 0.238 |
| FC1(F)Oc2ccc(-n3cc(COc4ncc(Cl)cn4)nn3)cc2O1 [Example 356, 5-Chloro-2-[[1-(2,2-difluoro-1,3-benzodioxol-5-yl)triazol-4-yl]methoxy]pyrimidine] | 0.185 |
| Cc1nc(OCc2cn(-c3ccc4c(c3)OC(F)(F)O4)nn2)ncc1F [Example 357, 2-[[1-(2,2-Difluoro-1,3-benzodioxol-5-yl)triazol-4-yl]methoxy]-5-fluoro-4-methyl-pyrimidine] | 0.35 |
| Fc1cnc(OCc2cn(-c3ccc4c(c3)OC(F)(F)O4)nn2)nc1 [Example 358, 2-[[1-(2,2-Difluoro-1,3-benzodioxol-5-yl)triazol-4-yl]methoxy]-5-fluoro-pyrimidine] | 0.726 |
| Cc1cnc(OCc2cn(-c3ccc4c(c3)OC(F)(F)O4)nn2)nc1C [Example 359, 2-[[1-(2,2-Difluoro-1,3-benzodioxol-5-yl)triazol-4-yl]methoxy]-4,5-dimethyl-pyrimidine] | 0.009 |
